Earlier results in US20040216174A1, “Screening assays for targets and drugs useful in treatment and prevention of lipid metabolism disorders” (priority 2003, published 2004).

Tested on: C. elegans
Conditions: treatment with antioxidant

For vitamin E, which “effect on germline development” value is on record?
Its value is “slows down germline development”.
